Measured values reported in patent US20220160703A1, “TUMOR-SELECTIVE COMBINATION THERAPY” (The Board of Regents of The University of Texas System, priority 2019, published 2022).

Key:
MC38-OVA cells = test: Prophylactic tumor vaccination with β-lap-induced dying MC38-OVA cells; type: in vivo, mice; conditions: β-lap-induced dying MC38-OVA cells s.c., rechallenge after 7 days
Description: (FIG. 5B) The research schema for in vivo cross-presentation of tumor specific antigen from β-lap-induced dying tumor cells in FIG. 5C and FIG. 5D. (FIGS. 5C-D) Live or β-lap-induced dying MC38-OVA cells were subcutaneously inoculated into the flank of WT or Tlr4^−/− C57BL/6 (n=3-4/group) mice along with or without anti-HMGB1 antibody. 5 days later, the tumor drain lymph mode cells were collected and re-stimulated with OVA protein, OT-1 peptide or irradiated MC38-OVA cells for 48 hr. IFNγ producing cells were determined by ELISPOTs assay (FIG. 5C), and IFNγ secretion level was quantified by CBA mouse IFNγ assay (FIG. 5D). (FIG. 5E) The research schema for the immunogenic vaccine assay in FIG. 5F. (FIG. 5F) MC38-OVA cells treated with β-lap in vitro were inoculated s.c. along with or without anti-HMGB1 antibody into the flank of C57BL/6 mice (n=5-7/group). […] Data are shown as mean±SEM from at least two to three independent experiments. *P<0.05, **P<0.01, and ***P<0.001 determined by two-way ANOVA (FIG. 5C and FIG. 5D) or log-rank test (FIG. 5F).
The numbers of tumor antigen-specific T cells (FIG. 5C) and IFNγ production (FIG. 5D) in TdLN were determined; (ii) C57BL/6 mice that received vaccination with β-lap-induced dying MC38-OVA cells in the presence of anti-HMGB1Ab were rechallanged with MC38-OVA for evaluation of the antitumor protection (FIGS. 5E-F). […]

ROS = test: Cellular ROS / H2O2 detection; type: cell-based, murine; conditions: for ROS level: 3 hr, DCFDA
Procedure: (§1) (FIG. 1A) NQO1 positive tumor cell lines MC38, TC-1 and Ag104Ld and NQO1 negative cell lines Panc02 and B16 grown in 48-well plates were treated with β-lap (0-8 μM) for a 3 hr followed by washing and replacing medium. Cell viability was determined by Sulforhodamine B (SRB) Assay 4 days later. […] (FIG. 1C) MC38 cells with CRISPR-based NQO1 Knockout (MC38 NQO1KO #5) planted in 96-well plates were exposed to β-lap for 3 hr and cell survival was assessed 48 hr later. […] (FIG. 1E) MC38 cells were exposed to a lethal dose of β-lap (4 μM) for indicated times, then stained with 7-AAD and Annexin V followed by flow cytometry analysis. […] (FIG. 1H) MC38 and B16 NQO1 #1 cells were exposed to β-lap for a 3 hr. Catalase (1000 U/ml) was added and cell survival was assessed 48 hr later. (FIG. 1I) C57BL/6 mice (n=5/group) were transplanted with MC38 cells and treated with β-lap (0.03 mg, 0.1 mg or 0.3 mg, intratumorally; or 25 mg/kg, i.v.) every other day for four times. (FIG. 1J) C57BL/6 mice were transplanted with MC38 cells (NQO1 WT or KO, n=5/group) and treated with β-lap (0.3 mg, i.t.) every other day for four times. Tumor growth was monitored twice a week.
(§2) (FIG. 8A) NQO1 expression in multiple murine tumor lines was immunoblotted as indicated. (FIG. 8B) NQO1^+ cells (MC38, TC-1, and Ag104Ld) and NQO1^− cells (B16 and Pan02) were treated for 3 h with β-lap±DIC (50 μM). Drugs were removed and survival assessed 5 days later. (FIG. 8C) Relative H2O2 levels were assessed in various cells treated with β-lap for 3 h at the indicated doses using CellRox-Glo. Values were normalized to DMSO-treated control cells. (FIG. 8D) TC-1 cells exposure to β-lap for 12 h, later PARP-1 and Caspase-3 levels were analyzed by western blotting assay. […]
(FIG. 21A) Viability of murine cell lines following IB-DNQ treatment for 4 h. […] (FIGS. 21D-E) DNA double strand break was assessed via comet assay (FIG. 21D) and γH2AX foci/nuclei immunofluorescence (FIG. 21E). (FIG. 21F) MC38 cell death after a 4 h exposure to IB-DNQ was determined by 7AAD and Annexin V staining using flow cytometry analysis.

[1] = system: NQO1 positive tumor cell lines MC38, TC-1 and Ag104Ld; type: cell-based
Procedure: as §1, with “(FIG. 1J) C57BL/6 mice were transplanted with MC38 cells (NQO1 WT or KO, n=5/group) and treated with β-lap (0.3 mg, i.t.) every other day for four times.” left out
as §2, with “(FIG. 8B) NQO1^+ cells (MC38, TC-1, and Ag104Ld) and NQO1^− cells (B16 and Pan02) were treated for 3 h with β-lap±DIC (50 μM).” left out, “Values were normalized to DMSO-treated control cells.” left out
(FIGS. 14A-C) NQO1 cells MC38 (A) and TC-1 (B) and NQO1^− cells B16 (C) were treated for 2 h with various doses of IB-DNQ±DIC (50 μM). Drugs were removed and survival assessed 6 days later. […] (FIGS. 14E-F) Relative NAD^+ (E) or ATP (F) levels were assessed in TC-1 cells exposed to various doses of IB-DNQ for 2 h. […] Comet tail lengths in a.u. were monitored at indicated time; and DSBs quantified by γH2AX foci/nuclei using immunofluorescence at indicated time (FIG. 14H). […]
(FIG. 21A) Viability of murine cell lines following IB-DNQ treatment for 4 h. […] (FIGS. 21D-E) DNA double strand break was assessed via comet assay (FIG. 21D) and γH2AX foci/nuclei immunofluorescence (FIG. 21E). […]

In the case of `CC1(C)CCC2=C(O1)c1ccccc1C(=O)C2=O` [β-lap, β-lapachone], the “growth of re-challenged tumor after immunization” value (MC38-OVA cells) is reported as “prevented the growth of the re-challenged tumor”, the H2O2 level (ROS; NQO1+ cells but not NQO1− cells, 3 h exposure, CellRox-Glo) is reported as “High level of H2O2” and the ROS level (ROS; NQO1 null lines) is reported as “much less”. For the same compound, the ROS level (ROS; NQO1 positive murine tumor line) was “high level of ROS”, the “response to 3 h β-lap exposure (cell viability)” value ([1]; β-lap 0-8 μM, 3 hr, SRB 4 days later) was “sensitive” and the cell killing ([1]; β-lap 3 h ± DIC 50 μM, survival 5 days later) was “selectively killed”.
